Test results reported in PubChem BioAssay AID1259418 (Broad Institute, 2018).
Several values for one entry are separate records, joined by “and”; a condition that tells them apart may be missing. Equal entries are not always repeated. Records with an inconclusive call do not appear. Activity calls are given as the source filed them.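 How the source made its calls: active means fitted half-maximal concentration of signal decrease at or below twice the sample's top tested concentration; inconclusive means flat curve between -70 and -30 percent, or poor fit; inactive means flat within 30 percent, signal rise, or potency above limit.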 Starred links: 1 amine or outer side, 2 acyl side, 3 side chain; linkers in the order of their positions; H or OH if unused. Positions of bridges follow the written chain, without caps; N, C: chain ends. Non-standard residues stand in square brackets, D forms with d. Residues, ends and D or L forms follow the SMILES beside them. ξ: configuration not given here. *: point of attachment. pTerphenylCO(4''-OnC5H11) = CCCCCOc1ccc(-c2ccc(-c3ccc(C(=O)*)cc3)cc2)cc1; ξOrn(4,5-diOH) = O=C(C(CC(O)C(O)N[*:3])N[*:1])[*:2]; ξhTyr(βξ-OH,γξ-OH) = NC(C(=O)O)C(O)C(O)c1ccc(O)cc1; ξPro(3ξ-OH,4ξ-Me) = CC1CNC(C(=O)O)C1O; Hyp = O=C(O)[CH]1C[CH](O)CN1

The compounds below were run against T. gondii ME49Luc in IFN-y HeLa, luciferase, 72 h (assay: T. gondii growth inhibition with IFN-gamma, dose response, cell-based, ME49Luc, HeLa, luciferase, 72 h (AID 1259418)).

| Structure (SMILES) | AC50 |
| --- | --- |
| COc1cccc(C(=O)Nc2ccc3c(c2)C(=O)N(C)[C@H]2CC[C@@H](CC(=O)N[C@@H](C)c4ccccc4)O[C@H]2CO3)c1 | > 39000 nM (inactive) |
| CCc1c(C)sc2c1CCN(Cc1nc(-c3cccc(C)c3)oc1C)C2c1ccccc1 (stereo not drawn) | 9680 nM |
| O=C1NCC(=O)N2CCN(C(=O)Nc3cc(Cl)cc(Cl)c3)CC12 (stereo not drawn) | 20300 nM |
| COc1ccc2c(c1)NC1(CCN(C(=O)CCc3cc(OC)c(OC)c(OC)c3)CC1)c1cccn1-2 | > 39000 nM (inactive) |
| CCN1CCN(c2nc(-c3ccc(OC)cc3)nc3ccccc23)CC1 | 17400 nM |
| CN1C(=O)CCc2cc(NC(=O)C(F)(F)F)ccc21 | 17100 nM |
| N#Cc1cccc(-c2ccc([C@@H]3[C@H]4CN(Cc5ccccc5F)CCCCN4[C@H]3CO)cc2)c1 | 16500 nM |
| CC(C)C#Cc1ccc([C@H]2[C@@H](C#N)N(C(=O)c3cccc(F)c3)[C@@H]2CO)cc1 | 22000 nM |
| O=C(Nc1cccc(F)c1)N1CCCCN2[C@H](C1)[C@@H](c1ccc(C#Cc3cccnc3)cc1)[C@@H]2CO | 10300 nM |
| CCN1CCN(CCCNc2nc(-c3ccc(Cl)cc3)nc3ccccc23)CC1 | > 20000 nM (inactive) |
| COc1ccc(N(Cc2nc(-c3ccccc3)oc2C)S(=O)(=O)c2ccccc2C)cc1 | 11600 nM |
| CCCCNC(=O)CCC1N=C2c3ccccc3N=C(SCc3ccc(C)cc3C)N2C1=O (stereo not drawn) | 25100 nM |
| O=S(=O)(c1ccccc1)N1CCCCN2[C@@H](CO)[C@@H](c3ccc(C#CC4CCCC4)cc3)[C@@H]2C1 | 17500 nM and 6860 nM |
| Cc1ccc(CNC(=O)CC2Nc3c4ccccc4nc(=S)n3C2=O)cc1 (stereo not drawn) | 31500 nM |
| COc1ccc(-c2nc3c(s2)CN(S(=O)(=O)c2ccccc2C)CC3)cc1 | 6300 nM and 8210 nM |
| COc1ccc(CN2CCC(c3cc4c(ncn4C)c(-c4ccc(OC)cc4)n3)CC2)cc1 | 24700 nM |
| Cc1ccc(-c2nc(CN3CCN(C(=O)Nc4ccccc4)CC3)c(C)o2)cc1 | 17500 nM |
| COc1ccc(OCC(=O)N2CCC3(CC2)Nc2cc(OC)ccc2-n2cccc23)cc1 | 38300 nM |
| CC(C)CC#Cc1ccc([C@@H]2[C@@H](CO)N3CCCCN(C(=O)Nc4ccccc4)C[C@H]23)cc1 | 13500 nM and 9090 nM |
| C[C@H](NC(=O)C[C@H]1CC[C@@H]2[C@@H](COc3ccc(NS(=O)(=O)c4ccc(Cl)cc4)cc3C(=O)N2C)O1)c1ccccc1 | 11100 nM and 18100 nM |
| CCCNC(=O)N1C[C@@H]2N[C@H](C1)C2c1ccc(-c2ccc(OC)cc2)cc1 (stereo partly drawn) | 18000 nM and 23900 nM |
| O=C(CCC1N=C2c3ccccc3N=C(SCc3ccccc3F)N2C1=O)NCc1ccccc1 (stereo not drawn) | 29400 nM |

| Structure (SMILES) | AC50 |
| --- | --- |
| Cc1cccc(-c2nc(Cn3nnc(-c4nc(-c5cccs5)no4)c3C)c(C)o2)c1 | > 39000 nM (inactive) |
| O=C(Nc1cccc(F)c1)N1CCCCN2[C@@H](CO)[C@H](c3ccc(C#Cc4cccnc4)cc3)[C@@H]2C1 | 4480 nM |
| N#Cc1cccc(-c2ccc3c(c2)[C@@H]2[C@@H](CCN2C(=O)c2ccccc2F)[C@@H](CO)N3)c1 | 23300 nM |
| O=C(Cc1ccc(Cl)cc1)N1CC2(CCN(Cc3ccc(C(F)(F)F)cc3)CC2)C1 | 22200 nM |
| COc1ccc(-c2nc(NCCN3CCOCC3)c3ccccc3n2)cc1 | 14200 nM |
| COC(=O)C[C@H]1CC[C@@H]2[C@@H](COc3ccc(NC(=O)Nc4cccc(C#N)c4)cc3C(=O)N2C)O1 | 27500 nM and 18500 nM |
| CCCCCCCCCCCCCCCC[N+](C)(C)C | 16300 nM |
| O=C1CCc2cc(S(=O)(=O)NC(c3ccccc3)c3ccccc3)cc3c2N1CCC3 | 12800 nM |
| O=S(=O)(c1cccs1)N1CCCCN2[C@H](CO)[C@@H](c3ccc(/C=C/c4ccccc4)cc3)[C@@H]2C1 | 22000 nM |
| O=C(CCCCCn1c(=S)[nH]c2ccccc2c1=O)N1CCC(O)(c2cccc(C(F)(F)F)c2)CC1 | 26900 nM |
| COc1ccc(-c2nc(NCCCN3CCCC(C)C3)c3ccccc3n2)cc1 (stereo not drawn) | > 20000 nM (inactive) |
| COc1ccccc1CNC(=O)CC1N=C2c3ccccc3N=C(SCc3cc(=O)n4cc(Cl)ccc4n3)N2C1=O (stereo not drawn) | 29600 nM |
| O=C(C1CCCCC1)N1C[C@@H]2N[C@H](C1)C2c1ccc(-c2ccccc2F)cc1 (stereo partly drawn) | 16700 nM |
| O=C(c1ccc(-n2c(=S)[nH]c3ccccc3c2=O)cc1)N1CCC(O)(c2cccc(C(F)(F)F)c2)CC1 | 38000 nM |
| OC1(c2cccc(C(F)(F)F)c2)CCN(Cc2ccc3[nH]ccc3c2)CC1 | 33500 nM |
| O=C(c1ccc2c(c1)OCO2)N1C[C@@H]2N[C@H](C1)C2c1ccc(/C=C/c2ccccc2)cc1 (stereo partly drawn) | 8940 nM and 21900 nM |
| CCOc1ccc(-c2nc(CN3CCN(C(=O)Nc4cc(OC)ccc4OC)CC3)c(C)o2)cc1 | 38000 nM |
| O=S(=O)(c1ccc2c(c1)CCCC2)N1CCC2(CC1)NCCN=C2NCc1ccc(F)cc1 | 9400 nM |
| N#C[C@@H]1[C@@H](c2ccc(C3=CCCCC3)cc2)[C@@H](CO)N1S(=O)(=O)c1ccccc1 | > 39 µM (inactive) and 5.52 µM |
| CN1C(=O)c2cc(NC(=O)c3cccc(F)c3)ccc2OC[C@H]2O[C@@H](CC(=O)NCC3CCCCC3)CC[C@H]21 | 18600 nM and 10500 nM and 24500 nM |
| Cc1ccc2c(c1)c1ncn(Cc3nc(C(C)C)no3)c(=O)c1n2CC(=O)N1CCCC1 | 14500 nM |
| COc1ccccc1-c1nc(CN(c2ccccc2OC)S(=O)(=O)c2ccc(C)cc2)c(C)o1 | 12400 nM |

| Structure (SMILES) | AC50 |
| --- | --- |
| COc1cccc(NC(=O)N2CC(=O)N3[C@H](C2)[C@H](c2ccc(C#CCC4CCCC4)cc2)[C@@H]3CO)c1 | 14200 nM and 9850 nM |
| Cn1cnc(S(=O)(=O)N2CCCCN3[C@H](CO)[C@H](c4ccc(C5=CCCCC5)cc4)[C@@H]3C2)c1 | 18400 nM and 20200 nM |
| CC(C)Cc1ccc(S(=O)(=O)N2CCC3(CC2)NCCN=C3NC2CCCCC2)cc1 | 25600 nM |
| CCOC(=O)CSC1=Nc2ccccc2C2=NC(CCC(=O)NCc3ccc(OC)cc3)C(=O)N12 (stereo not drawn) | 27800 nM |
| CCCCNc1ncnc2c1cnn2-c1ccc(C)cc1C | 28100 nM |
| CCc1cnc(N2[C@H](C#N)[C@H](c3ccc(-c4cccc(F)c4)cc3)[C@H]2CO)s1 | 21300 nM |
| COc1ccccc1S(=O)(=O)N1CC[C@@H]2[C@H]1c1cc(-c3cccc(C#N)c3)ccc1N(C)[C@H]2CO | 18900 nM |
| O=S(=O)(c1ccccc1)N1CCCCN2[C@H](CO)[C@@H](c3ccc(C#CC4CCCC4)cc3)[C@@H]2C1 | 13400 nM |
| CC(C)CC#Cc1ccc([C@H]2[C@@H](CO)N3C(=O)CN(C(=O)Nc4cc(F)ccc4F)C[C@H]23)cc1 | 22100 nM and 15700 nM |
| CCCCCOc1ccc(-c2ccc(-c3ccc(C(=O)NC4CC(O)C(O)NC(=O)C5C(O)C(C)CN5C(=O)C(C(C)O)NC(=O)C(C(O)C(O)c5ccc(O)cc5)NC(=O)C5CC(O)CN5C(=O)C(C(C)O)NC4=O)cc3)cc2)cc1 (stereo not drawn) ({pTerphenylCO(4''-OnC5H11)}-[ξOrn(4,5-diOH)]T[Hyp][ξhTyr(βξ-OH,γξ-OH)]T[ξPro(3ξ-OH,4ξ-Me)]; lactam 1-C; configuration not given here) | 25000 nM |
| CCOc1ccc(-c2nc(CN3CCN(C(=O)NC4CCCC4)CC3)c(C)o2)cc1 | 29500 nM |
| O=C(CCn1cnc2cc(-c3noc(-c4cc5cc(Cl)ccc5[nH]4)n3)ccc21)N1CCCC1 | 23700 nM |
| C/C=C/c1ccc([C@H]2[C@H](CO)N3CCCCN(S(=O)(=O)c4ccc(OC)cc4)C[C@@H]23)cc1 | > 39000 nM (inactive) |
| O=C(Cc1ccncc1)N1C[C@@H]2N[C@H](C1)C2c1ccc(/C=C/c2ccccc2)cc1 (stereo partly drawn) | 20900 nM |
| COc1ccccc1-c1ccc([C@H]2[C@H](CO)N[C@@H]2C#N)cc1 | 24000 nM |
| CCCCC(CC)CNC(=O)CC1Nc2c3ccccc3nc(=S)n2C1=O (stereo not drawn) | 17900 nM |
| COc1ccc(CNC(=O)CC2N=C3c4ccccc4N=C(SCc4ccc(F)cc4)N3C2=O)cc1 (stereo not drawn) | 22600 nM |
| COc1cccc(S(=O)(=O)N2CCCCN3[C@H](CO)[C@@H](c4ccc(C#CCC(C)C)cc4)[C@H]3C2)c1 | 24900 nM and 10300 nM and 9500 nM |
| O=C(Nc1cccc(F)c1)N1CCCCN2[C@H](CO)[C@H](c3ccc(C#Cc4cccnc4)cc3)[C@H]2C1 | 19300 nM |
| O=C(CCC1N=C2c3ccccc3N=C(SCc3ccc(F)cc3)N2C1=O)NCCc1ccccc1 (stereo not drawn) | 37800 nM |
| CCCC#Cc1ccc([C@H]2[C@H](CO)N3C(=O)CN(C(=O)Nc4cccc(F)c4)C[C@@H]23)cc1 | 10400 nM |
| Cn1nc2c(c1C(=O)Nc1ccc(N3CCCCC3)c(F)c1)CCCC2 | 15900 nM |

| Structure (SMILES) | AC50 |
| --- | --- |
| Cc1ccc(CNC2=NCCNC23CCN(S(=O)(=O)c2ccc(CC(C)C)cc2)CC3)cc1 | 7710 nM |
| CCN1CCCC1CNc1nc(-c2ccc(OC)cc2)nc2ccccc12 (stereo not drawn) | 15100 nM |
| COCCCN(Cc1ccco1)c1nc(-c2ccc(OC)cc2)nc2ccccc12 | 16900 nM |
| CCOc1ccc(-c2nc(CN(c3ccccc3C)S(=O)(=O)c3cccs3)c(C)o2)cc1 | 18800 nM |
| O=S(=O)(c1ccc2c(c1)CCCC2)N1CCC2(CC1)NCCN=C2NC1CCCCC1 | 11700 nM |
| O=C(c1ccc(-n2nc(C(F)(F)F)c3c2CCCC3)cc1)N1CCC2(CC1)OCCO2 | 1400 nM |
| O=C(CC1Nc2c3ccccc3nc(=S)n2C1=O)NCCN1CCN(c2cccc(Cl)c2)CC1 (stereo not drawn) | 37100 nM |
| CCOc1ccc(CC(=O)N2CCC3(CC2)Nc2cc(F)ccc2-n2cccc23)cc1OCC | > 39000 nM (inactive) |
| CC[C@H]1CN2CCC1C[C@@H]2[C@@H](O)c1ccnc2ccc(OC)cc12 (stereo partly drawn) | 2250 nM |
| Cc1ccccc1-c1nc(CN2CCN(C(=O)NCCc3ccccc3)CC2)c(C)o1 | 17400 nM |
| CCOc1ccccc1-n1c(C(C)N2CCN(C(=O)COc3ccc(Cl)cc3)CC2)nc2ccccc2c1=O (stereo not drawn) | 7750 nM |
| O=C(Nc1cccnc1)c1cc(-c2cnc(-c3ccccc3)nc2)cn1CC1CC1 | 34200 nM and 26900 nM |
| COc1ccccc1-c1nc(Cn2nnc(-c3nc(-c4cccc(C(F)(F)F)c4)no3)c2C)c(C)o1 | > 20000 nM (inactive) |
| N#C[C@H]1N[C@@H](CO)[C@@H]1c1ccc(C#CC2CCCCC2)cc1 | 19100 nM |
| CCN(c1ccccc1C)S(=O)(=O)c1cc2c3c(c1)CCC(=O)N3CCC2 | 13000 nM |
| Cc1ccc(-c2coc(-c3ccc(NC(=O)Nc4ccc(Br)cc4)cc3)n2)cc1 | > 39000 nM (inactive) |
| O=C(CC1N=C2c3ccccc3N=C(SCc3cccc(F)c3)N2C1=O)NC1CCCCC1 (stereo not drawn) | 30000 nM |
| CCc1cnc(N2[C@H](CO)[C@@H](c3ccc(C#Cc4ccccc4F)cc3)[C@@H]2C#N)s1 | 21300 nM |
| Cc1cccc(S(=O)(=O)N2CCc3nc(-c4cnn(C)c4)nc(NC4CC4)c3C2)c1 | 19000 nM |
| CN1C(=O)c2cc(NC(=O)c3cccc(F)c3)ccc2OC[C@@H]2O[C@H](CC(=O)NCC3CCCCC3)CC[C@@H]21 | 18600 nM and 22100 nM |
| CCCN(C/C=C/I)C1CCc2cccc(O)c2C1 (stereo not drawn) | 30900 nM |
| O=C(CCCCCNc1nc(=S)[nH]c2ccccc12)N1CCC(O)(c2cccc(C(F)(F)F)c2)CC1 | > 39000 nM (inactive) |
